In patent publication US6706663B2, “Herbicidal 3-heterocyclic substituted benzisothiazole and benzisoxazole compounds” (Wyeth, priority 2000, dated 2004):

Tests used:
[1] = tested on: ABUTH (Abutilon theophrasti); assay: Preemergence herbicidal evaluation; assay type: in vivo, Medic.; conditions: preemergence, rated 4-5 weeks after treatment
[2] = tested on: ORYSAT (Rice, Tebonnet); assay: Preemergence herbicidal evaluation; assay type: in vivo, Oryza sativa, (L.) Tebonnet; conditions: preemergence, rated 4-5 weeks after treatment
[3] = tested on: ECHCG (Echinochloa crus-galli); assay: Preemergence herbicidal evaluation; assay type: in vivo, (L.) Beau; conditions: preemergence, rated 4-5 weeks after treatment
Summary of the method: (§1)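 Visual 0–9 rating versus control (stand, vigor, malformation, size, chlorosis, overall appearance), scored four to five weeks post-treatment. Preemergence spray of aqueous acetone solution onto freshly seeded soil cups; plants grown under conventional greenhouse care.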

[4] = tested on: SETVI (Setaria viridis); assay: Preemergence herbicidal evaluation; assay type: in vivo, (L.) Beau; conditions: preemergence, rated 4-5 weeks after treatment
Summary of the method: as §1

[5] = tested on: TRZAWR (Wheat, Winter, cv Riband); assay: Postemergence herbicidal evaluation; assay type: in vivo, Triticum aestivum
Summary of the method: (§2)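 Seedlings grown about two weeks in flats, sprayed, then kept under standard greenhouse care. Rated visually 4–5 weeks after treatment on a 0–9 scale (stand, vigour, malformation, size, chlorosis, overall appearance) relative to untreated control; repeat tests averaged.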

[6] = tested on: ECHCG (Echinochloa crus-galli); assay: Postemergence herbicidal evaluation; assay type: in vivo, (L.) Beau
Summary of the method: as §2

[7] = tested on: TRZAWR (Wheat, Winter, cv Riband); assay: Preemergence herbicidal evaluation; assay type: in vivo, Triticum aestivum; conditions: preemergence, rated 4-5 weeks after treatment
Summary of the method: as §1

[8] = tested on: GALAP (Galium aparine); assay: Preemergence herbicidal evaluation; assay type: in vivo; conditions: preemergence, rated 4-5 weeks after treatment
Summary of the method: as §1

[9] = tested on: ZEAMX (Corn, Field); assay: Postemergence herbicidal evaluation; assay type: in vivo, Zea mays, L.
Summary of the method: as §2

[10] = tested on: ECHORC (Echinochloa oryzoides); assay: Flooded paddy, preemergence weed control; assay type: in vivo, Echinochloa oryzoides (Ard.) Fritsch.; conditions: rated 3-4 weeks after treatment, 0-9 rating scale
Summary of the method: (§3)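 Flooded silt loam pots, seeds in upper 0.5 cm, water held 1.5–3 cm deep; greenhouse; visual 0-9 score vs control.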

[11] = tested on: MOOVA (Monochoria vaginalis); assay: Flooded paddy, preemergence weed control; assay type: in vivo, Presl.; conditions: rated 3-4 weeks after treatment, 0-9 rating scale
Summary of the method: as §3

[12] = tested on: SETVI (Setaria viridis); assay: Postemergence herbicidal evaluation; assay type: in vivo, (L.) Beau
Summary of the method: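 Seedlings grown about two weeks were sprayed with compound in 50/50 acetone/water containing 0.5% TWEEN 20, at about 0.0040 to 1.000 kg/ha via nozzle at 40 psi. Plants were kept under greenhouse conditions and visually rated on a 0-9 scale versus control four to five weeks after treatment; replicate tests averaged.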

[13] = tested on: GLXMAW (Soybean, Williams); assay: Postemergence herbicidal evaluation; assay type: in vivo, Glycine max, (L.) Merr. cv Williams
Summary of the method: as §2

[14] = tested on: IPOHE (Ipomoea hederacea); assay: Postemergence herbicidal evaluation; assay type: in vivo, (L.) Jacq.
Summary of the method: as §2

[15] = tested on: CASOB (Cassia obtusifolia); assay: Preemergence herbicidal evaluation; assay type: in vivo, L.; conditions: preemergence, rated 4-5 weeks after treatment
Summary of the method: as §1

[16] = tested on: AMBEL (Ambrosia artemisifolia); assay: Preemergence herbicidal evaluation; assay type: in vivo, L.; conditions: preemergence, rated 4-5 weeks after treatment
Summary of the method: as §1

[17] = tested on: CHEAL (Chenopodium album); assay: Preemergence herbicidal evaluation; assay type: in vivo, L.; conditions: preemergence, rated 4-5 weeks after treatment
Summary of the method: as §1

[18] = tested on: CYPSE (Cyperus serotinus); assay: Flooded paddy, preemergence weed control; assay type: in vivo, Rottb.; conditions: rated 3-4 weeks after treatment, 0-9 rating scale
Summary of the method: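 Herbicidal effect was scored visually on a 0–9 scale against an untreated control 3–4 weeks after treatment. Compounds were applied preemergence as 50/50 v/v aqueous/acetone mixtures into flood water (1.5–3 cm deep over silt loam), at roughly 0.0080 to 0.1250 kg/ha active ingredient.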

[19] = tested on: ORYSAT (Rice, Tebonnet); assay: Postemergence herbicidal evaluation; assay type: in vivo, Oryza sativa, (L.) Tebonnet
Summary of the method: as §2

SMILES: COC(=O)COc1ccsc1-c1nsc2ccc(-n3c(=O)cc(C(F)(F)F)n(C)c3=O)cc12 [Compound 22, Methyl [(2-[5-[3,6-dihydro-3-methyl-2,6-dioxo-4-(trifluoromethyl)-1(2H)-pyrimidinyl]-1,2-benzisothiazol-3-yl]-3-thienyl]oxy]acetate]
- ABUTH preemergence herbicidal rating ([1]; Rate 0.0620 kg/ha): 1.0
- ABUTH preemergence herbicidal rating ([1]; Rate 0.1250 kg/ha): 4.0
- ABUTH preemergence herbicidal rating ([1]; Rate 0.2500 kg/ha): 5.0
- ORYSAT preemergence herbicidal rating ([2]; Rate 0.0620 kg/ha): 0.0
- ORYSAT preemergence herbicidal rating ([2]; Rate 0.1250 kg/ha): 0.0
- ORYSAT preemergence herbicidal rating ([2]; Rate 0.2500 kg/ha): 0.0
- ECHCG preemergence herbicidal rating ([3]; Rate 0.0620 kg/ha): 0.0
- ECHCG preemergence herbicidal rating ([3]; Rate 0.1250 kg/ha): 0.0
- ECHCG preemergence herbicidal rating ([3]; Rate 0.2500 kg/ha): 1.0
- SETVI preemergence herbicidal rating ([4]; Rate 0.0620 kg/ha): 0.0
- SETVI preemergence herbicidal rating ([4]; Rate 0.1250 kg/ha): 1.0
- SETVI preemergence herbicidal rating ([4]; Rate 0.2500 kg/ha): 3.0
- Postemergence herbicidal rating, TRZAWR ([5]; rate 0.0320 kg/ha): 2.5
- Postemergence herbicidal rating, TRZAWR ([5]; rate 0.0620 kg/ha): 3.5
- Postemergence herbicidal rating, TRZAWR ([5]; rate 0.1250 kg/ha): 4.5
- Postemergence herbicidal rating, ECHCG ([6]; rate 0.0320 kg/ha): 0.0
- Postemergence herbicidal rating, ECHCG ([6]; rate 0.0620 kg/ha): 2.0
- Postemergence herbicidal rating, ECHCG ([6]; rate 0.1250 kg/ha): 6.0
- TRZAWR preemergence herbicidal rating ([7]; Rate 0.0620 kg/ha): 0.0
- TRZAWR preemergence herbicidal rating ([7]; Rate 0.1250 kg/ha): 0.0
- TRZAWR preemergence herbicidal rating ([7]; Rate 0.2500 kg/ha): 0.0
- GALAP preemergence herbicidal rating ([8]; Rate 0.0620 kg/ha): 0.0
- GALAP preemergence herbicidal rating ([8]; Rate 0.1250 kg/ha): 0.0
- GALAP preemergence herbicidal rating ([8]; Rate 0.2500 kg/ha): 1.0
- Postemergence herbicidal rating, ZEAMX ([9]; rate 0.0320 kg/ha): 4.5
- Postemergence herbicidal rating, ZEAMX ([9]; rate 0.0620 kg/ha): 6.0
- Postemergence herbicidal rating, ZEAMX ([9]; rate 0.1250 kg/ha): 7.0
- herbicidal rating, ECHORC ([10]; rate 0.0080 kg/ha): 0.0
- herbicidal rating, ECHORC ([10]; rate 0.0320 kg/ha): 0.0
- herbicidal rating, ECHORC ([10]; rate 0.1250 kg/ha): 5.0
- herbicidal rating, MOOVA ([11]; rate 0.0080 kg/ha): 0.0
- herbicidal rating, MOOVA ([11]; rate 0.0320 kg/ha): 4.5
- herbicidal rating, MOOVA ([11]; rate 0.1250 kg/ha): 4.5
- Postemergence herbicidal rating, SETVI ([12]; rate 0.0320 kg/ha): 3.0
- Postemergence herbicidal rating, SETVI ([12]; rate 0.0620 kg/ha): 2.0
- Postemergence herbicidal rating, SETVI ([12]; rate 0.1250 kg/ha): 9.0
- Postemergence herbicidal rating, GLXMAW ([13]; rate 0.0320 kg/ha): 5.5
- Postemergence herbicidal rating, GLXMAW ([13]; rate 0.0620 kg/ha): 5.5
- Postemergence herbicidal rating, GLXMAW ([13]; rate 0.1250 kg/ha): 6.5
- Postemergence herbicidal rating, IPOHE ([14]; rate 0.0320 kg/ha): 4.0
- Postemergence herbicidal rating, IPOHE ([14]; rate 0.0620 kg/ha): 4.0
- Postemergence herbicidal rating, IPOHE ([14]; rate 0.1250 kg/ha): 6.0
- CASOB preemergence herbicidal rating ([15]; Rate 0.0620 kg/ha): 0.0
- CASOB preemergence herbicidal rating ([15]; Rate 0.1250 kg/ha): 0.0
- CASOB preemergence herbicidal rating ([15]; Rate 0.2500 kg/ha): 1.0
- AMBEL preemergence herbicidal rating ([16]; Rate 0.0620 kg/ha): 0.0
- AMBEL preemergence herbicidal rating ([16]; Rate 0.1250 kg/ha): 0.0
- AMBEL preemergence herbicidal rating ([16]; Rate 0.2500 kg/ha): 2.0
- CHEAL preemergence herbicidal rating ([17]; Rate 0.0620 kg/ha): 0.0
- CHEAL preemergence herbicidal rating ([17]; Rate 0.1250 kg/ha): 3.0
- CHEAL preemergence herbicidal rating ([17]; Rate 0.2500 kg/ha): 9.0
- herbicidal rating, CYPSE ([18]; rate 0.0320 kg/ha): 0.0
- herbicidal rating, CYPSE ([18]; rate 0.1250 kg/ha): 0.0
- Postemergence herbicidal rating, ORYSAT ([19]; rate 0.0320 kg/ha): 3.0
- Postemergence herbicidal rating, ORYSAT ([19]; rate 0.0620 kg/ha): 3.5
- Postemergence herbicidal rating, ORYSAT ([19]; rate 0.1250 kg/ha): 4.5
